Assay results reported in ChEMBL document CHEMBL1154382, “Preliminary SAR analysis of novel antiproliferative N(6),5'-bis-ureidoadenosine derivatives” (2009).

Key:
Format in all cases: functional
Details in all cases: values are per cent of control
PC-3 = test: Antiproliferative activity against human PC3 cells at 10 uM assessed as cell growth inhibition relative to control
A498 = test: Antiproliferative activity against human A498 cells at 10 uM assessed as cell growth inhibition relative to control
NCI-H460 = test: Antiproliferative activity against human NCI-H460 cells at 10 uM assessed as cell growth inhibition relative to control
KM12 = test: Antiproliferative activity against human KM12 cells at 10 uM assessed as cell growth inhibition relative to control
HCC 2998 = test: Antiproliferative activity against human HCC2998 cells at 10 uM assessed as cell growth inhibition relative to control
[1] = Antiproliferative activity against human […] cells at 10 uM assessed as cell growth inhibition relative to control
NCI-H322M = test: Antiproliferative activity against human NCI-H322M cells at 10 uM assessed as cell growth inhibition relative to control
U-251 = test: Antiproliferative activity against human U251 cells at 10 uM assessed as cell growth inhibition relative to control
SK-MEL-5 = test: Antiproliferative activity against human SK-MEL-5 cells at 10 uM assessed as cell growth inhibition relative to control
SF-268 = test: Antiproliferative activity against human SF268 cells at 10 uM assessed as cell growth inhibition relative to control
SW-620 = test: Antiproliferative activity against human SW620 cells at 10 uM assessed as cell growth inhibition relative to control
DU-145 = test: Antiproliferative activity against human DU145 cells at 10 uM assessed as cell growth inhibition relative to control
HCT-116 = test: Antiproliferative activity against human HCT116 cells at 10 uM assessed as cell growth inhibition relative to control
SN12C = test: Antiproliferative activity against human SN12C cells at 10 uM assessed as cell growth inhibition relative to control
CCRF-CEM = test: Antiproliferative activity against human CCRF-CEM cells at 10 uM assessed as cell growth inhibition relative to control
MOLT-4 = test: Antiproliferative activity against human MOLT4 cells at 10 uM assessed as cell growth inhibition relative to control
IGROV-1 = test: Antiproliferative activity against human IGROV1 cells at 10 uM assessed as cell growth inhibition relative to control
K562 = test: Antiproliferative activity against human K562 cells at 10 uM assessed as cell growth inhibition relative to control
NCI-H522 = test: Antiproliferative activity against human NCI-H522 cells at 10 uM assessed as cell growth inhibition relative to control
HOP-92 = test: Antiproliferative activity against human HOP92 cells at 10 uM assessed as cell growth inhibition relative to control
EKVX = test: Antiproliferative activity against human EKVX cells at 10 uM assessed as cell growth inhibition relative to control
SF-539 = test: Antiproliferative activity against human SF539 cells at 10 uM assessed as cell growth inhibition relative to control
OVCAR-4 = test: Antiproliferative activity against human OVCAR4 cells at 10 uM assessed as cell growth inhibition relative to control
TK-10 = test: Antiproliferative activity against human TK10 cells at 10 uM assessed as cell growth inhibition relative to control
A549 = test: Antiproliferative activity against human A549 cells at 10 uM assessed as cell growth inhibition relative to control
SK-MEL-28 = test: Antiproliferative activity against human SK-MEL-28 cells at 10 uM assessed as cell growth inhibition relative to control
UO-31 = test: Antiproliferative activity against human UO31 cells at 10 uM assessed as cell growth inhibition relative to control
RXF 393 = test: Antiproliferative activity against human RXF393 cells at 10 uM assessed as cell growth inhibition relative to control
MDA-MB-231 = test: Antiproliferative activity against human MDA-MB-231 cells at 10 uM assessed as cell growth inhibition relative to control
OVCAR-5 = test: Antiproliferative activity against human OVCAR5 cells at 10 uM assessed as cell growth inhibition relative to control
SK-OV-3 = test: Antiproliferative activity against human SKOV3 cells at 10 uM assessed as cell growth inhibition relative to control
SNB-75 = test: Antiproliferative activity against human SNB75 cells at 10 uM assessed as cell growth inhibition relative to control
SF-295 = test: Antiproliferative activity against human SF295 cells at 10 uM assessed as cell growth inhibition relative to control
MCF7 = test: Antiproliferative activity against human MCF7 cells at 10 uM assessed as cell growth inhibition relative to control
[2] = Antiproliferative activity against human Hs 578T cells at 10 uM assessed as cell growth inhibition relative to control
COLO 205 = test: Antiproliferative activity against human COLO205 cells at 10 uM assessed as cell growth inhibition relative to control
SK-MEL-2 = test: Antiproliferative activity against human SK-MEL-2 cells at 10 uM assessed as cell growth inhibition relative to control
OVCAR-3 = test: Antiproliferative activity against human OVCAR-3 cells at 10 uM assessed as cell growth inhibition relative to control
UACC-257 = test: Antiproliferative activity against human UACC257 cells at 10 uM assessed as cell growth inhibition relative to control
OVCAR-8 = test: Antiproliferative activity against human OVCAR8 cells at 10 uM assessed as cell growth inhibition relative to control
UACC-62 = test: Antiproliferative activity against human UACC62 cells at 10 uM assessed as cell growth inhibition relative to control
HCT-15 = test: Antiproliferative activity against human HCT15 cells at 10 uM assessed as cell growth inhibition relative to control
HOP-62 = test: Antiproliferative activity against human HOP62 cells at 10 uM assessed as cell growth inhibition relative to control
SNB-19 = test: Antiproliferative activity against human SNB19 cells at 10 uM assessed as cell growth inhibition relative to control
ACHN = test: Antiproliferative activity against human ACHN cells at 10 uM assessed as cell growth inhibition relative to control
Malme-3M = test: Antiproliferative activity against human MALME-3M cells at 10 uM assessed as cell growth inhibition relative to control
M14 = test: Antiproliferative activity against human M14 cells at 10 uM assessed as cell growth inhibition relative to control
MDA-MB-468 = test: Antiproliferative activity against human MDA-MB-468 cells at 10 uM assessed as cell growth inhibition relative to control
CAKI-1 = test: Antiproliferative activity against human Caki1 cells at 10 uM assessed as cell growth inhibition relative to control
BT-549 = test: Antiproliferative activity against human BT549 cells at 10 uM assessed as cell growth inhibition relative to control
NCI-H23 = test: Antiproliferative activity against human NCI-H23 cells at 10 uM assessed as cell growth inhibition relative to control
LOX IMVI = test: Antiproliferative activity against human LOXIMVI cells at 10 uM assessed as cell growth inhibition relative to control
T47D = test: Antiproliferative activity against human T47D cells at 10 uM assessed as cell growth inhibition relative to control
HL-60(TB) = test: Antiproliferative activity against human HL-60(TB) cells at 10 uM assessed as cell growth inhibition relative to control
NCI-H226 = test: Antiproliferative activity against human NCI-H226 cells at 10 uM assessed as cell growth inhibition relative to control
786-0 = test: Antiproliferative activity against human 786-0 cells at 10 uM assessed as cell growth inhibition relative to control
HT-29 = test: Antiproliferative activity against human HT-29 cells at 10 uM assessed as cell growth inhibition relative to control

## CCOC(=O)C[C@H]1[C@@H](O[Si](C)(C)C(C)(C)C)[C@H](n2cnc3c(NC(=O)Nc4ccccc4)ncnc32)O[C@@H]1CN=[N+]=[N-]
PC-3
  growth, % of control at 10 µM: 64%
A498
  growth, % of control at 10 µM: 121%
NCI-H460
  growth, % of control at 10 µM: 104%
KM12
  growth, % of control at 10 µM: 101%
HCC 2998
  growth, % of control at 10 µM: 121%
[1]
  growth, % of control at 10 µM: 75%
NCI-H322M
  growth, % of control at 10 µM: 99%
U-251
  growth, % of control at 10 µM: 95%
SK-MEL-5
  growth, % of control at 10 µM: 104%
SF-268
  growth, % of control at 10 µM: 95%
SW-620
  growth, % of control at 10 µM: 101%
DU-145
  growth, % of control at 10 µM: 105%
HCT-116
  growth, % of control at 10 µM: 82%
SN12C
  growth, % of control at 10 µM: 81%
CCRF-CEM
  growth, % of control at 10 µM: 63%
MOLT-4
  growth, % of control at 10 µM: 79%
IGROV-1
  growth, % of control at 10 µM: 93%
K562
  growth, % of control at 10 µM: 72%
NCI-H522
  growth, % of control at 10 µM: 90%
HOP-92
  growth, % of control at 10 µM: 100%
EKVX
  growth, % of control at 10 µM: 89%
SF-539
  growth, % of control at 10 µM: 89%
OVCAR-4
  growth, % of control at 10 µM: 66%
TK-10
  growth, % of control at 10 µM: 103%
A549
  growth, % of control at 10 µM: 103%
SK-MEL-28
  growth, % of control at 10 µM: 116%
UO-31
  growth, % of control at 10 µM: 83%
RXF 393
  growth, % of control at 10 µM: 111%
MDA-MB-231
  growth, % of control at 10 µM: 95%
OVCAR-5
  growth, % of control at 10 µM: 107%
SK-OV-3
  growth, % of control at 10 µM: 101%
SNB-75
  growth, % of control at 10 µM: 73%
SF-295
  growth, % of control at 10 µM: 94%
MCF7
  growth, % of control at 10 µM: 85%
[2]
  growth, % of control at 10 µM: 92%
COLO 205
  growth, % of control at 10 µM: 114%
SK-MEL-2
  growth, % of control at 10 µM: 91%
OVCAR-3
  growth, % of control at 10 µM: 111%
UACC-257
  growth, % of control at 10 µM: 88%
OVCAR-8
  growth, % of control at 10 µM: 98%
UACC-62
  growth, % of control at 10 µM: 83%
HCT-15
  growth, % of control at 10 µM: 84%
HOP-62
  growth, % of control at 10 µM: 98%
SNB-19
  growth, % of control at 10 µM: 92%
ACHN
  growth, % of control at 10 µM: 92%
Malme-3M
  growth, % of control at 10 µM: 97%
M14
  growth, % of control at 10 µM: 101%
MDA-MB-468
  growth, % of control at 10 µM: 95%
CAKI-1
  growth, % of control at 10 µM: 87%
BT-549
  growth, % of control at 10 µM: 100%
NCI-H23
  growth, % of control at 10 µM: 97%
LOX IMVI
  growth, % of control at 10 µM: 96%
T47D
  growth, % of control at 10 µM: 73%
HL-60(TB)
  growth, % of control at 10 µM: 51%
NCI-H226
  growth, % of control at 10 µM: 62%
786-0
  growth, % of control at 10 µM: 89%
HT-29
  growth, % of control at 10 µM: 104%
